# Read-outs that look alike come from different tables or passages of the source.
# What was measured:
# [1] = cited from earlier work
# [2] = human
# [3] = human, cited from earlier work; for Rb_Human: blood-to-plasma concentration ratio, median if multiple values reported, Reference of Table S1
# plasma protein = conditions: cited from earlier work; for fp_Human (free fraction in plasma): human
# [4] = human, cited from earlier work
# [5] = human, intravenous, median if multiple values were reported, ref numbers in Table S1
# [6] = median if multiple values were reported, ref numbers in Table S1
# [7] = collected value, median if multiple values were reported, ref: Table S1
# [8] = intravenous, median if multiple values were reported, ref numbers in Table S1
# [9] = free fraction in human plasma, median if multiple values reported, Reference of Table S1
# [10] = intravenous, median if multiple values reported, Reference of Table S1
# [11] = human, intravenous, median if multiple values reported, Reference of Table S1
molecule,measurement,setting,value
CC(C)NCC(O)COc1ccc(CCOCC2CC2)cc1 (centres unmarked) [Betaxolol],in vivo CL_(L/hr/kg)_Human,[1]; [5],0.204 L/h/kg
same,in vivo MRT_(hr)_Human,[2],23.529 h
same,Rb_Human (blood-to-plasma concentration ratio),[3]; [6],0.79
same,fp_Human (free fraction in plasma),plasma protein; [7],0.495
same,in vivo Vd_(L/kg)_Human,[4]; [8],4.800 L/kg
CC[C@H](C)C[C@H](C)CCCCCCCCC(=O)N[C@H]1C[C@@H](O)[C@@H](NCCN)NC(=O)[C@@H]2[C@@H](O)CCN2C(=O)[C@H]([C@H](O)CCN)NC(=O)[C@H]([C@H](O)[C@@H](O)c2ccc(O)cc2)NC(=O)[C@@H]2C[C@@H](O)CN2C(=O)[C@H]([C@@H](C)O)NC1=O [Caspofungin],in vivo CL_(L/hr/kg)_Human,"[1]; in vivo, iv",0.008 L/h/kg
same,in vivo MRT_(hr)_Human,[2],15.476 h
same,Rb_Human (blood-to-plasma concentration ratio),[3]; plasma,0.74
same,fp_Human (free fraction in plasma),plasma protein; plasma,0.035
same,in vivo Vd_(L/kg)_Human,"[4]; in vivo, iv",0.130 L/kg
CO[C@@]1(NC(=O)C2SC(=C(C(N)=O)C(=O)O)S2)C(=O)N2C(C(=O)O)=C(CSc3nnnn3C)CS[C@@H]21 (some centres unmarked) [Cefotetan],in vivo CL_(L/hr/kg)_Human,[1]; [5],0.025 L/h/kg
same,in vivo MRT_(hr)_Human,[2],5.159 h
same,Rb_Human (blood-to-plasma concentration ratio),[3]; [6],0.65
same,fp_Human (free fraction in plasma),plasma protein; [7],0.150
same,in vivo Vd_(L/kg)_Human,[4]; [8],0.130 L/kg
CC(C)(O/N=C(\C(=O)N[C@@H]1C(=O)N2C(C(=O)[O-])=C(C[n+]3ccccc3)CS[C@H]12)c1csc(N)n1)C(=O)O [Ceftazidime],in vivo CL_(L/hr/kg)_Human,[1]; [5],0.144 L/h/kg
same,in vivo MRT_(hr)_Human,[2],2.153 h
same,Rb_Human (blood-to-plasma concentration ratio),[3]; [6],0.72
same,fp_Human (free fraction in plasma),plasma protein; [7],0.790
same,in vivo Vd_(L/kg)_Human,[4]; [8],0.310 L/kg
CN(C)CCC(c1ccc(Cl)cc1)c1ccccn1 (centres unmarked) [Chlorpheniramine],in vivo CL_(L/hr/kg)_Human,[1]; [5],0.150 L/h/kg
same,in vivo MRT_(hr)_Human,[2],22.000 h
same,Rb_Human (blood-to-plasma concentration ratio),[3]; [6],1.34
same,fp_Human (free fraction in plasma),plasma protein; [7],0.280
same,in vivo Vd_(L/kg)_Human,[4]; [8],3.300 L/kg
Clc1cccc(Cl)c1N=C1NCCN1 [Clonidine],in vivo CL_(L/hr/kg)_Human,[1]; [5],0.213 L/h/kg
same,in vivo MRT_(hr)_Human,[2],13.750 h
same,Rb_Human (blood-to-plasma concentration ratio),[3]; [6],1.04
same,fp_Human (free fraction in plasma),plasma protein; [7],0.560
same,in vivo Vd_(L/kg)_Human,[4]; [8],3.300 L/kg
CCOc1ccc(NC(C)=O)cc1 [Phenacetin],in vivo MRT_(hr)_Human,[2],1.111 h
same,Rb_Human,[3],1.01
same,fp_Human,plasma protein; [9],0.470
same,in vivo Vd_(L/kg)_Human,[4]; [10],1.400 L/kg
CC(C)NCC(O)COc1cccc2[nH]ccc12 (centres unmarked) [Pindolol],in vivo MRT_(hr)_Human,[2],2.597 h
same,Rb_Human,[3],0.69
same,fp_Human,plasma protein; [9],0.580
same,in vivo Vd_(L/kg)_Human,[4]; [10],1.200 L/kg
CC[C@H](C)C(=O)O[C@H]1C[C@H](O)C=C2C=C[C@H](C)[C@H](CC[C@@H](O)C[C@@H](O)CC(=O)O)[C@H]21 [Pravastatin],in vivo CL_(L/hr/kg)_Human,[1]; [11],0.840 L/h/kg
same,Rb_Human,[3],0.59
same,fp_Human,plasma protein; [9],0.500
same,in vivo Vd_(L/kg)_Human,[4]; [10],0.460 L/kg
CCc1nc(N)nc(N)c1-c1ccc(Cl)cc1 [Pyrimethamine],in vivo CL_(L/hr/kg)_Human,[1]; [11],0.003 L/h/kg
same,Rb_Human,[3],0.98
same,fp_Human,plasma protein; [9],0.095
same,in vivo Vd_(L/kg)_Human,[4]; [10],0.430 L/kg
CNC(=C[N+](=O)[O-])NCCSCc1ccc(CN(C)C)o1 [Ranitidine],in vivo MRT_(hr)_Human,[2],2.083 h
same,Rb_Human,[3],1.00
same,fp_Human,plasma protein; [9],0.900
same,in vivo Vd_(L/kg)_Human,[4]; [10],1.200 L/kg
CCOc1cc(CC(=O)N[C@@H](CC(C)C)c2ccccc2N2CCCCC2)ccc1C(=O)O [Repaglinide],in vivo CL_(L/hr/kg)_Human,[1]; [11],0.513 L/h/kg
same,Rb_Human,[3],0.55
same,fp_Human,plasma protein; [9],0.015
same,in vivo Vd_(L/kg)_Human,[4]; [10],0.350 L/kg
Cc1nc2sccn2c(=O)c1CCN1CCC(=C(c2ccc(F)cc2)c2ccc(F)cc2)CC1 [Ritanserin],in vivo CL_(L/hr/kg)_Human,[1]; [11],0.031 L/h/kg
same,Rb_Human,[3],0.65
same,fp_Human,plasma protein; [9],0.009
same,in vivo Vd_(L/kg)_Human,[4]; [10],1.410 L/kg
CCCN1CCCC[C@H]1C(=O)Nc1c(C)cccc1C [Ropivacaine],in vivo CL_(L/hr/kg)_Human,[1]; [11],0.330 L/h/kg
same,Rb_Human,[3],0.81
same,fp_Human,plasma protein; [9],0.065
same,in vivo Vd_(L/kg)_Human,[4]; [10],0.750 L/kg
C#CCN(C)[C@H](C)Cc1ccccc1 [Selegiline],in vivo CL_(L/hr/kg)_Human,[1]; [11],1.200 L/h/kg
same,Rb_Human,[3],1.73
same,fp_Human,plasma protein,0.095
same,in vivo Vd_(L/kg)_Human,"[4]; in vivo, iv",1.900 L/kg
CC(C)NCC(O)c1ccc(NS(C)(=O)=O)cc1 (centres unmarked) [Sotalol],in vivo MRT_(hr)_Human,[2],10.833 h
same,Rb_Human,[3],1.07
same,fp_Human,plasma protein; [9],0.810
same,in vivo Vd_(L/kg)_Human,[4]; [10],1.300 L/kg
Cc1cn([C@H]2C=C[C@@H](CO)O2)c(=O)[nH]c1=O [Stavudine],in vivo CL_(L/hr/kg)_Human,[1]; [11],0.492 L/h/kg
same,Rb_Human,[3],1.30
same,fp_Human,plasma protein; [9],1.000
same,in vivo Vd_(L/kg)_Human,[4]; [10],0.670 L/kg
CCOc1ccccc1OCCN[C@H](C)Cc1ccc(OC)c(S(N)(=O)=O)c1 [Tamsulosin],in vivo CL_(L/hr/kg)_Human,[1]; [11],0.037 L/h/kg
same,Rb_Human,[3],0.55
same,fp_Human,plasma protein; [9],0.010
same,in vivo Vd_(L/kg)_Human,[4]; [10],0.210 L/kg
CCCCCNC(=N)N/N=C/c1c[nH]c2ccc(OC)cc12 [Tegaserod],in vivo CL_(L/hr/kg)_Human,[1]; [11],1.080 L/h/kg
same,Rb_Human,[3],0.72
same,fp_Human,plasma protein; [9],0.020
same,in vivo Vd_(L/kg)_Human,[4]; [10],5.300 L/kg
CCCc1nc2c(C)cc(-c3nc4ccccc4n3C)cc2n1Cc1ccc(-c2ccccc2C(=O)O)cc1 [Telmisartan],in vivo CL_(L/hr/kg)_Human,[1]; [11],0.504 L/h/kg
same,Rb_Human,[3],1.22
same,fp_Human,plasma protein; [9],0.004
same,in vivo Vd_(L/kg)_Human,[4]; [10],6.295 L/kg
C[C@H](Cn1cnc2c(N)ncnc21)OCP(=O)(O)O [Tenofovir],in vivo CL_(L/hr/kg)_Human,[1]; [11],0.186 L/h/kg
same,Rb_Human,[3],1.05
same,fp_Human,plasma protein; [9],0.930
same,in vivo Vd_(L/kg)_Human,[4]; [10],0.830 L/kg
COc1ccccc1Oc1c(NS(=O)(=O)c2ccc(C(C)C)cn2)nc(-c2ccnc(-c3nnn[nH]3)c2)nc1OCCO [Tezosentan],in vivo CL_(L/hr/kg)_Human,[1]; [11],0.486 L/h/kg
same,Rb_Human,[3],0.60
same,fp_Human,plasma protein; [9],0.0085
same,in vivo Vd_(L/kg)_Human,[4]; [10],0.280 L/kg
CC(C)(C)NC[C@H](O)COc1nsnc1N1CCOCC1 [Timolol],in vivo CL_(L/hr/kg)_Human,[1]; [11],0.462 L/h/kg
same,Rb_Human,[3],0.84
same,fp_Human,plasma protein; [9],0.491
same,in vivo Vd_(L/kg)_Human,[4]; [10],1.500 L/kg
Nc1nc(N)c2nc(-c3ccccc3)c(N)nc2n1 [Triamterene],in vivo CL_(L/hr/kg)_Human,[1]; [11],3.780 L/h/kg
same,Rb_Human,[3],1.03
same,fp_Human,plasma protein; [9],0.420
same,in vivo Vd_(L/kg)_Human,[4]; [10],13.000 L/kg
COc1cc(Cc2cnc(N)nc2N)cc(OC)c1OC [Trimethoprim],in vivo MRT_(hr)_Human,[2],11.905 h
same,Rb_Human,[3],1.03
same,fp_Human,plasma protein; [9],0.500
same,in vivo Vd_(L/kg)_Human,[4]; [10],1.500 L/kg
Cc1c(C)c2c(c(C)c1O)CCC(C)(COc1ccc(CC3SC(=O)NC3=O)cc1)O2 (centres unmarked) [Troglitazone],in vivo CL_(L/hr/kg)_Human,[1]; [11],0.210 L/h/kg
same,Rb_Human,[3],0.55
same,fp_Human,plasma protein; [9],0.00347
same,in vivo Vd_(L/kg)_Human,[4]; [10],0.710 L/kg
CCCC(CCC)C(=O)O [Valproic Acid],in vivo CL_(L/hr/kg)_Human,[1]; [11],0.008 L/h/kg
same,Rb_Human,[3],0.64
same,fp_Human,plasma protein; [9],0.091
same,in vivo Vd_(L/kg)_Human,[4]; [10],0.145 L/kg
O=C1Cc2cc(CCN3CCN(c4nsc5ccccc45)CC3)c(Cl)cc2N1 [Ziprasidone],in vivo CL_(L/hr/kg)_Human,[1]; [11],0.504 L/h/kg
same,Rb_Human,[3],0.81
same,fp_Human,plasma protein; [9],0.0012
same,in vivo Vd_(L/kg)_Human,[4]; [10],1.000 L/kg
O=P(O)(O)C(O)(Cn1ccnc1)P(=O)(O)O [Zoledronic Acid],in vivo CL_(L/hr/kg)_Human,[1]; [11],0.132 L/h/kg
same,Rb_Human,[3],0.59
same,fp_Human,plasma protein; [9],0.780
same,in vivo Vd_(L/kg)_Human,[4]; [10],0.600 L/kg
"Oc1ccc2c(c1)[C@@]13CCCC[C@@]1(O)[C@@H](C2)N(CC1CCC1)CC3 [butorphanol, reference compound]",in vivo CL_(L/hr/kg)_Human,[1]; [5],2.460 L/h/kg
same,Rb_Human (blood-to-plasma concentration ratio),[3]; plasma,1.90
same,fp_Human (free fraction in plasma),plasma protein; [7],0.170
same,in vivo Vd_(L/kg)_Human,"[4]; in vivo, iv",12.000 L/kg
Isosorbide mononitrate,in vivo CL_(L/hr/kg)_Human,[1]; [5],0.102 L/h/kg
same,Rb_Human (blood-to-plasma concentration ratio),[3]; plasma,1.00
same,fp_Human,"plasma protein; human plasma free fraction, median if multiple values were reported, ref numbers in Table S1",0.850
same,fp_Human (free fraction in plasma),plasma protein; [7],0.850
same,in vivo Vd_(L/kg)_Human,"[4]; in vivo, iv",0.600 L/kg

# From article PMC8342319, “Predicting blood-to-plasma concentration ratios of drugs from chemical structures and volumes of distribution in humans” (Molecular Diversity, 2021)
